Here are results for 1 molecule from patent US11787847B2, “Method of identifying malodor modulating compounds” (FIRMENICH SA, priority 2017, dated 2023).

Experiment [1] relates to mouse receptor Olfr1193, Olfr1093, Olfr1097, Olrf166, Olfr169, Olfr738 and Olfr742, and human receptor OR4S2 and OR52N5. Description: cAMP HTRF dose-response assay in HEK293T cells expressing odorant receptors (Example 2). The class given is cell-based. The conditions noted are these: increasing concentrations of odorant, receptors co-transfected with human Golf.
Experiment [2] deals with mouse receptors Olfr1193, Olfr1093, Olfr1097, Olfr166, Olfr169, Olfr738, Olfr742 and human odorant receptor OR4S2. Description: cAMP HTRF dose-response assay, DMTS/DMDS response profiles (Example 5). The experiment is classed as cell-based. Particulars: increasing concentration of compound; relative to butyric acid control. The method, then:
(§1) Functional dose-response experiments were performed to evaluate the level of DMTS activity of the modified cell line expressing individual putative DMTS receptors. Using a cell-based assay, mouse receptor Olfr1193, Olfr1093, Olfr1097, Olrf166, Olfr169, Olfr738 and Olfr742, and human receptor OR4S2 and OR52N5 were tested in an HEK293T cell line wherein the endogenous RTP1 gene has been activated and the odorant receptor chaperone protein was expressed (described in WO2016/201153). The mouse receptor genes were tagged with a Lucy-FLAG®-Rho tag combination and the human receptors were tagged with a Rho-FLAG® tag combination resulting in a tag:receptor fusion protein for the cell based assay. Receptor genes were co-transfected with the canonical olfactory human G-protein alpha subunit Golf gene and were exposed to increasing concentrations of the malodor odorant. Co-expression of the human Golf activates the Gs transduction pathway that leads to an internal cAMP increase upon binding to the appropriate ligand. Odorant-induced activity was detected by measuring the cAMP increase in the cytosol using an Homogeneous Time Resolved Fluorescence (HTRF) based kit (CisBio, cAMP dynamic 2 kit, cat. 62AM4PEJ). […]

Experiment [3] deals with human receptors OR2L13, OR4C15, OR5AC2, OR8H3, OR11G2 or OR52N2. Description: Ca2+ (Calcium 5 dye, FLIPR) dose-response assay in stable HEK293T cell lines (Example 3). The experiment is classed as cell-based. The conditions noted are these: increasing concentrations of DMTS, co-expressed Galpha15. The method, then: Functional dose-response experiments were performed to evaluate the level of DMTS activity of the modified cell lines expressing individual putative DMTS receptors. A cell line stably expressing a human receptor was generated in a HEK293T cell line for each of the following human receptors: OR2L13, OR4C15, OR5AC2, OR8H3, OR11G2 or OR52N2. The receptors were tagged with a FLAG®-Rho tag combination and stably co-expressed with the human G-protein alpha subunit Gals for the cell based assay. Co-expression of the human Gals activates the Gq transduction pathway that leads to an internal Ca^2+ increase upon binding to the appropriate ligand. Receptors were exposed to increasing concentrations of DMTS. Odorant-induced activity was detected by measuring the Ca^2+ increase in the cytosol using a calcium sensitive fluorescent dye (Molecular Devices, Calcium 5 dye, cat. R8186) and measuring the change in Relative Fluorescence Ratio (RFU) using a fluorometric imaging plate reader (Molecular Devices, FLIPR) following odorant exposure. […] A cell line lacking a receptor was used as a control for non-specific activity at high compound concentrations (‘No receptor’). The activity levels are reported by the potency of the DMTS induced-response for each receptor as a measure of the EC50 value.

In experiment [4] the target is T1, mouse receptor Olfr742 (Mus musculus, UniProt A2RTP5).
T1 construct: cAMP HTRF
T1 sequence (A2RTP5 1-311): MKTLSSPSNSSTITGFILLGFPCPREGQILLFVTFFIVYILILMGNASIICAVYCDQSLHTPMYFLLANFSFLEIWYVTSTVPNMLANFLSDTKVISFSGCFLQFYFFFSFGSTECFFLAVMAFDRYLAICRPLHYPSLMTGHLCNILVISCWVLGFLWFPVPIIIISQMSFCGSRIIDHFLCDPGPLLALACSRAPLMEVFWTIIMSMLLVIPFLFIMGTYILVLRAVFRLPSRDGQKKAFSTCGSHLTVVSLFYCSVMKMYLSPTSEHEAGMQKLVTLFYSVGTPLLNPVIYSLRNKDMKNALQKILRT
Description: cell-based dose-response, cAMP increase by HTRF, HEK293T cells (endogenous RTP1 activated) co-transfected with human Golf, Lucy-FLAG-Rho tagged receptor.

Experiment [5] addresses T2, human receptor OR52N5 (Homo sapiens, UniProt Q8NH56).
T2 construct: the human receptors were tagged with a Rho-FLAG® tag combination; expressed in transfected cells
T2 sequence (Q8NH56 1-324): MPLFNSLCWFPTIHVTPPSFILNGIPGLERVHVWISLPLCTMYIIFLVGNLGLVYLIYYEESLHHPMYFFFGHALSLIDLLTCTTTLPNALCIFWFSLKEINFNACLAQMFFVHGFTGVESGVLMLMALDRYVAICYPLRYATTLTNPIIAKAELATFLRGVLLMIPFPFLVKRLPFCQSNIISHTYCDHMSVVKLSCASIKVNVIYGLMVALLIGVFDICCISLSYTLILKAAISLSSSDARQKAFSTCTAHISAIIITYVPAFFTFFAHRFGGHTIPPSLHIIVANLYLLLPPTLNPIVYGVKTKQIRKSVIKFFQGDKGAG
Description: cell-based dose-response, cAMP increase by HTRF, HEK293T cells (endogenous RTP1 activated) co-transfected with human Golf, Rho-FLAG tagged receptor. Particulars: FIG. 2, Example 2, SEQ ID NO: 24. The method, then: as §1

As for `CSSSC` [DMTS, dimethyl trisulfide], the “receptor activity (cAMP increase in the cytosol)” value in experiment [1] is “dose-dependent increase of the receptor activity”. Further, in experiment [2], the “receptor activity (cAMP increase)” value was “strong dose-dependent increase of the receptor activity”. The “receptor activity (Ca2+ increase in the cytosol, RFU)” value in experiment [3] is reported as “dose-dependent increase of receptor activity”. For the same molecule, the EC50 in experiment [4] (FIG. 2, Example 2, SEQ ID NO: 14) amounted to 7 µM; in experiment [4] (FIG. 5, Example 5, SEQ ID NO: 14), 16 µM; in experiment [5] it was 10 µM.
